Measured values reported in patent publication US11040021B2, “Treatment of diseases associated with hepatic stellate cell activation using ammonia-lowering therapies” (UCL Business PLC, priority 2014, dated 2021).

Legend:
[1] = tested on: primary human hepatic stellate cells (hHSCs); assay: hHSC recovery with glutamine and GS inhibition (MSO) under ammonia; assay type: cell-based
Method: (§1) Primary human hepatic stellate cells (hHSCs) were cultured. Effects of an NH4Cl challenge (0.1-10 mM over 24-72 hrs) on hHSC proliferation (BrdU), metabolic activity (MTS assay), viability (Neutral-Red), ultrastructural changes (TE-M) and gene/protein expression (q-PCR/Western blot) were studied. To test recovery, ammonia treated cells were replenished with glutamine and in separate experiments, pre-treated with L-methionine-sulfoximine (MSO-GS inhibitor) to determine the importance of glutamine synthetase (GS).

[2] = tested on: SOD2; assay: SOD2 mRNA expression in hHSC; assay type: cell-based, human
[3] = tested on: primary human hepatic stellate cells (hHSCs)
Method: as §1
(§2) In this example, primary human HSCs (hHSCs) were isolated and cultured. Proliferation (BrdU), metabolic activity (MTS), morphology (TEM, light- and immunofluorescence microscopy), HSC activation markers, ability to contract, and changes in oxidative status (ROS) were evaluated to identify effects of ammonia challenge (50 μM, 100 μM, 300 μM) over 24-72 hours.
(§3) Primary hHSCs were isolated from wedge sections of liver tissue, obtained from patients undergoing surgery in the Royal Free Hospital after giving informed consent (EC01.14-RF). Cells were isolated according to Mederacke et al. (Nature Protocols 2015, 10:305-315) with modifications for human liver as described in Rombouts K, Carloni V. Determination and characterization of tetraspanin-associated phosphoinositide-4 kinases in primary and neoplastic liver cells. In: Waugh MG, editor. Lipid Signaling Protocols, 2 ed. New York: Springer Science+Business Media; 2015. p. 203-212). Briefly, 10 g of total human liver tissue was digested with 0.01% Collagenase, 0.05% Pronase and 0.001% DNase I without performing perfusion. The homogenate was filtered through a 100 μm cell strainer and the flow-through was centrifuged at 50×g for 2 minutes at 4° C. After washing the supernatant, gradient centrifugation was performed at 1400×g for 17 minutes at 4° C. using an 11.5% Optiprep gradient. Finally, the interface was collected and washed. Purity of hHSCS was established by detection of CD140b (PDGFRbeta), CD29 (Integrin beta 1) and Cytoglobin (CYGB).
The obtained HSCs were cultured in RPMI supplemented with 20% fetal bovine serum (FBS), GLUTAMAX, nonessential amino acids 1×, 1.0 mM sodium pyruvate, 1× antibiotic-antimycotic (all Life Technologies), referred to as complete HSC medium hereinafter. Experiments described in this study were performed on hHSCs of at least three independent cell preparations between passage 3 and 8.
Cells were seeded (density 26×10^3/cm^2) under basic serum-rich conditions (CM complete medium) for 24 hours, followed by serum deprivation for another 24 hours (SFM). Exogenous glutamine was removed from the culture medium to avoid uncontrolled generation of ammonia. Specific treatment with NH4Cl treatments were replaced daily for the duration of the experiment.

[4] = tested on: MMP2, TIMP1, Interleukin-1β, Interleukin 6, Interleukin 8
Method: as §1, §2

[5] = tested on: α-SMA, vimentin, PDGF-Rβ, Myosin IIa and IIb, p-38 MAPK, Collagen type I
Method: as §1, §2

[6] = tested on: primary human hepatic stellate cells (hHSCs); details: after 3 hours, sustained after 24 hours, vs control
Method: as §2

[7] = tested on: primary human hepatic stellate cells (hHSCs); remark: listed apart in the source
Description: as §3
The obtained HSCs were cultured in RPMI supplemented with 20% fetal bovine serum (FBS), GLUTAMAX, nonessential amino acids 1×, 1.0 mM sodium pyruvate, 1× antibiotic-antimycotic (all Life Technologies), referred to as complete HSC medium hereinafter. […]

[8] = tested on: primary human hepatic stellate cells (hHSCs); details: up to 72 hours
Method: The formation of reactive oxygen species (ROS) was measured using Image-IT™ LIVE Green Reactive Oxygen Species Detection Kit. In FIG. 3B, mean fluorescence intensity (MFI) of ROS signal was normalized according to the number of cells (Hoechst 33342), and expressed as percentage of control.
as §2

[9] = Example 1, NH4Cl challenge 0.1-10 mM over 24-72 hrs
[10] = different concentrations of ammonia (50, 100, 300 μM), 72 hours
[11] = in comparison to MSO treatment only
[12] = increasing concentrations of ammonia

NC(=O)CC[C@H](N)C(=O)O [L-glutamine]
Ammonia-induced ER enlargement on replenishing the culture with L-glutamine ([1]; Example 1): reversible

CS(=N)(=O)CC[C@H](N)C(=O)O (stereo partly drawn) [MSO, L-Methionine sulfoximine]
Effect of MSO together with hyperammonemia on hHSC ([1]; Example 1, MSO pre-treatment): induced cell detachment and prevention of recovery

CC(=O)N[C@@H](CS)C(=O)O [NAC, N-acetyl cysteine]
Ammonia-induced SOD2 mRNA expression after NAC pre-treatment ([2]; 3 hours of ammonia treatment): no impact
Ammonia-induced SOD2 mRNA expression after NAC pre-treatment ([2]; 24 hours of ammonia treatment): almost completely abolished

N [ammonia, NH4Cl]
Filamentous actin in the cytoskeleton (TRITC-Phalloidin staining) ([3]; 72 hours): dose-dependent disruption of filamentous actin
Intracellular ER (ultrastructure) ([3]; Example 1): dose-dependent intracellular ER enlargement
Metabolic activity [3, 9]: time dependent decreases
Proliferation [3, 9]: time dependent decreases
Cell phenotype ([3]; Example 1, even at 50-100 umol/L): cell swelling and a myo-fibroblast-like phenotype
Cell proliferation (BrdU assay) [3, 10]: significant inhibition
Metabolic activity (MTS assay) [3, 10]: significant inhibition
Ultrastructural change (TEM) ([3]; dose-dependent, FIG. 2A): dramatic dose-dependent change in the cytosol and marked presence of translucent vacuoles
Metabolic activity after MSO pretreatment followed by ammonia [3, 11]: did not further inhibit
Proliferation after MSO pretreatment followed by ammonia [3, 11]: did not further inhibit
SOD2 mRNA expression ([2]; ammonia, after 3 hours, sustained at 24 hours): strong increase
Interleukin 8 mRNA expression [4]: did not modify
MMP2 mRNA expression ([4]; FIG. 4B): strong and significant up-regulation
TIMP1 mRNA expression ([4]; FIG. 4B): down-regulated
Interleukin-1β mRNA expression ([4]; ammonia 300 μM for 72 hours): significantly induced
Interleukin 6 mRNA expression level ([4]; ammonia at 50 μM and 100 μM): significantly up-regulated
P-38 MAPK expression [5]: dose-dependent response
PDGFR-β protein [5]: significant up-regulation
Vimentin synthesis ([5]; 300 μM ammonia): increased
α-SMA protein expression ([5]; FIG. 4A): significantly increase
Myosin IIa protein [5, 12]: significantly modulated
Myosin IIb protein [5, 12]: significantly modulated
Collagen type I protein ([5]; not statistically significant): tendency to increase
Contraction of hHSCs cultured on collagen gels [6]: significant ability to contract
Cell death (Cell Death Detection ELISA) [7]: did not cause cell death
ROS production [8]: produced significant reactive oxygen species
